Assay results reported in ChEMBL document CHEMBL5390231, “Development of small molecule inhibitors targeting RNA helicase DHX33 as anti-cancer agents” (Bioorg Med Chem Lett, 2023).
pIC50: −log10 of the molar value.

Tests used:
[1] = biological target: T1, ATP-dependent RNA helicase DHX33 (Mus musculus, UniProt Q80VY9); assay: Inhibition of N-terminal/C-terminal 6x His-tagged wild type recombinant mouse DHX33 transformed in Escherichia coli BL21(DE3)pLysS cells
T1 sequence (Q80VY9 whole entry): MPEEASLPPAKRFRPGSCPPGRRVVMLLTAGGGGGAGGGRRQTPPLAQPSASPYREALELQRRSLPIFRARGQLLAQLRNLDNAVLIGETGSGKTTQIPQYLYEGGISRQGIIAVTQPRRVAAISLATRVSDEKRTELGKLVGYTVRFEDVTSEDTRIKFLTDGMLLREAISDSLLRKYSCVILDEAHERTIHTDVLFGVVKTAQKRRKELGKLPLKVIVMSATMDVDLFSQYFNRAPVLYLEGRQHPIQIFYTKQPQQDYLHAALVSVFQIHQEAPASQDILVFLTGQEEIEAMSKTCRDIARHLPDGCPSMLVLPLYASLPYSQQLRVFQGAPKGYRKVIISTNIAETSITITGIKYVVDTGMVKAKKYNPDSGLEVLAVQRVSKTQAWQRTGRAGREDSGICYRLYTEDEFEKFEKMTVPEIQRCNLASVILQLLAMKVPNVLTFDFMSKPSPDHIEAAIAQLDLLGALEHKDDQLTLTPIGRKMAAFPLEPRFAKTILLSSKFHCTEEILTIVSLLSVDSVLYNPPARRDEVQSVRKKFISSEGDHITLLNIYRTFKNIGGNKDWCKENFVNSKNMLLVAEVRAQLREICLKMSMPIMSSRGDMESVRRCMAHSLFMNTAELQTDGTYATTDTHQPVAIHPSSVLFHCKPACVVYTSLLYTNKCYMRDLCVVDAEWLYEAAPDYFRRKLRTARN

[2] = biological target: T2, Probable ATP-dependent RNA helicase DHX40 (Homo sapiens, UniProt Q8IX18); assay: Inhibition of N-terminal thioredoxin-tagged human recombinant DHX40 transformed in Escherichia coli BL21(DE3)pLysS cells
T2 sequence (Q8IX18 whole entry): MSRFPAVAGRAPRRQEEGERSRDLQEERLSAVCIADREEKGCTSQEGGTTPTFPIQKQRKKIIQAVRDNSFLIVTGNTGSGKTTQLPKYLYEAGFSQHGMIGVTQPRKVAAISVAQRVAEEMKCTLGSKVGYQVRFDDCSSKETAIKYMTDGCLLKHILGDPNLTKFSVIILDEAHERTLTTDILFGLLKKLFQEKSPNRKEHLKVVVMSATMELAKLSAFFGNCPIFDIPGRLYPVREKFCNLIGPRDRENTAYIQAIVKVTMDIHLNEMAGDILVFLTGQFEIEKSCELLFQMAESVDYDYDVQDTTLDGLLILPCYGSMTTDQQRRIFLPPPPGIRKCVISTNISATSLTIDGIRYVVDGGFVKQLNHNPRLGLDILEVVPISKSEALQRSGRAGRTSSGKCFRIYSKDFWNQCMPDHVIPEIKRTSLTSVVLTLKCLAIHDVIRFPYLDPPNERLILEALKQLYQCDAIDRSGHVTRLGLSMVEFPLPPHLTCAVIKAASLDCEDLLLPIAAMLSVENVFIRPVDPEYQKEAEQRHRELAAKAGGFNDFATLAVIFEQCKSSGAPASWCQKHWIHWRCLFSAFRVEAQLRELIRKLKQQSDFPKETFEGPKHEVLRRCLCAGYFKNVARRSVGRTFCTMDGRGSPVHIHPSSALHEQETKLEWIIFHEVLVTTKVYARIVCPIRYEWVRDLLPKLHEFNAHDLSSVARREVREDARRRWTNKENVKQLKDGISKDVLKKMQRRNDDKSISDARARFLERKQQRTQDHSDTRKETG

Nucleolar RNA helicase 2 = biological target: T3, Nucleolar RNA helicase 2 (Homo sapiens, UniProt Q9NR30); assay: Inhibition of N-terminal thioredoxin-tagged human recombinant DDX21 transformed in Escherichia coli BL21(DE3)pLysS cells
T3 sequence (Q9NR30 whole entry): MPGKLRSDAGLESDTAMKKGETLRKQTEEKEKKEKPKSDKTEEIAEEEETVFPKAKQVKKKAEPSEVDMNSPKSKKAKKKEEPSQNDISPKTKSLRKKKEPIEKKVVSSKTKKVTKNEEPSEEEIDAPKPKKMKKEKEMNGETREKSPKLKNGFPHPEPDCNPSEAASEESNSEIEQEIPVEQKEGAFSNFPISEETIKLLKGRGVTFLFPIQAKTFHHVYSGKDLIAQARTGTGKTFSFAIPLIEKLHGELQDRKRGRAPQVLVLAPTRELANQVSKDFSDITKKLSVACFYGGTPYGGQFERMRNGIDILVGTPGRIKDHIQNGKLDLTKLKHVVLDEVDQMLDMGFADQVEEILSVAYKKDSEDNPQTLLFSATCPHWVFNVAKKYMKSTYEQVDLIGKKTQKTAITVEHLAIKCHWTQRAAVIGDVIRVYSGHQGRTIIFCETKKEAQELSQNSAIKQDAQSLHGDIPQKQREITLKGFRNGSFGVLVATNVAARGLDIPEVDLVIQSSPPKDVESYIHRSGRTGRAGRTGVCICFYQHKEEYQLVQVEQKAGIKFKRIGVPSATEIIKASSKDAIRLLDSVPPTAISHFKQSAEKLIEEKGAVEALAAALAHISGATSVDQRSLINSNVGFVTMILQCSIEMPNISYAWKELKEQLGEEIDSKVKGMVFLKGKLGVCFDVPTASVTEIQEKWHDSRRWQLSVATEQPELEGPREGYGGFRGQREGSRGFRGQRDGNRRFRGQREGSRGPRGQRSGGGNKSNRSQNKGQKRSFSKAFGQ

## COc1ccc2nc(NC(=O)c3cc(C)n(-c4sc(C)cc4C#N)c3C)[nH]c2c1
[1]
  pIC50: 7.72
[2]
  pIC50: < 4.00
Nucleolar RNA helicase 2
  pIC50: < 4.00
